Experiments:
Format in all cases: cell-based
CAKI-1 = assay: NCI 60 five-dose screen CAKI-1; settings: Homo sapiens, five-dose
KM12 = assay: NCI 60 five-dose screen KM12; settings: Homo sapiens, five-dose
SK-MEL-5 = assay: NCI 60 five-dose screen SK-MEL-5; settings: Homo sapiens, five-dose
HCT-15 = assay: NCI 60 five-dose screen HCT-15; settings: Homo sapiens, five-dose
M14 = assay: NCI 60 five-dose screen M14; settings: Homo sapiens, five-dose
OVCAR-3 = assay: NCI 60 five-dose screen OVCAR-3; settings: Homo sapiens, five-dose
HT29 = assay: NCI 60 five-dose screen HT29; settings: Homo sapiens, HT-29, five-dose
EKVX = assay: NCI 60 five-dose screen EKVX; settings: Homo sapiens, five-dose
TK-10 = assay: NCI 60 five-dose screen TK-10; settings: Homo sapiens, five-dose
CCRF-CEM = assay: NCI 60 five-dose screen CCRF-CEM; settings: Homo sapiens, five-dose
PC-3 = assay: NCI 60 five-dose screen PC-3; settings: Homo sapiens, five-dose
SW-620 = assay: NCI 60 five-dose screen SW-620; settings: Homo sapiens, five-dose
NCI/ADR-RES = assay: NCI 60 five-dose screen NCI/ADR-RES; settings: Homo sapiens, five-dose
NCI-H522 = assay: NCI 60 five-dose screen NCI-H522; settings: Homo sapiens, five-dose
SK-MEL-2 = assay: NCI 60 five-dose screen SK-MEL-2; settings: Homo sapiens, five-dose
A498 = assay: NCI 60 five-dose screen A498; settings: Homo sapiens, five-dose
MCF7 = assay: NCI 60 five-dose screen MCF7; settings: Homo sapiens, five-dose
HL-60(TB) = assay: NCI 60 five-dose screen HL-60(TB); settings: Homo sapiens, five-dose
MDA-MB-435 = assay: NCI 60 five-dose screen MDA-MB-435; settings: Homo sapiens, five-dose
MALME-3M = assay: NCI 60 five-dose screen MALME-3M; settings: Homo sapiens, MALME-3M, five-dose
HS 578T = assay: NCI 60 five-dose screen HS 578T; settings: Homo sapiens, five-dose
DU-145 = assay: NCI 60 five-dose screen DU-145; settings: Homo sapiens, five-dose
HOP-92 = assay: NCI 60 five-dose screen HOP-92; settings: Homo sapiens, five-dose
ACHN = assay: NCI 60 five-dose screen ACHN; settings: Homo sapiens, five-dose
K-562 = assay: NCI 60 five-dose screen K-562; settings: Homo sapiens, K562, five-dose
OVCAR-5 = assay: NCI 60 five-dose screen OVCAR-5; settings: Homo sapiens, five-dose
BT-549 = assay: NCI 60 five-dose screen BT-549; settings: Homo sapiens, five-dose
HCT-116 = assay: NCI 60 five-dose screen HCT-116; settings: Homo sapiens, five-dose
[1] = read-out: LC50 (the source's name) (converted)
[2] = read-out: LC50 (the source's name)

FC(F)(F)c1cc2c(Cl)ncnc2n1CCC1CCOCC1 [NUCC-0226674]
GI50 (CAKI-1): 14.5 µM | IC50 (CAKI-1): 26.9 µM | IC (TGI) (CAKI-1): 30.2 µM | CC50 (CAKI-1; [1]): 63.1 µM | GI50 (KM12): 16.2 µM | IC50 (KM12): 28.2 µM | IC (TGI) (KM12): 33.9 µM | CC50 (KM12; [1]): 70.8 µM | GI50 (SK-MEL-5): 2.82 µM | IC50 (SK-MEL-5): 4.37 µM | IC (TGI) (SK-MEL-5): 9.33 µM | CC50 (SK-MEL-5; [1]): 30.2 µM | GI50 (HCT-15): 2.95 µM | IC50 (HCT-15): 3.8 µM | IC (TGI) (HCT-15): 11 µM | CC50 (HCT-15; [1]): 41.7 µM | GI50 (M14): 3.72 µM | IC50 (M14): 6.31 µM | IC (TGI) (M14): 16.2 µM | CC50 (M14; [1]): 50.1 µM | GI50 (OVCAR-3): 12.3 µM | IC50 (OVCAR-3): 23.4 µM | IC (TGI) (OVCAR-3): 27.5 µM | CC50 (OVCAR-3; [1]): 61.7 µM | GI50 (HT29): 13.8 µM | IC50 (HT29): 21.4 µM | IC (TGI) (HT29): 44.7 µM | CC50 (HT29; [1]): ≥ 100 µM | GI50 (EKVX): 12.6 µM | IC50 (EKVX): 25.7 µM | IC (TGI) (EKVX): 28.2 µM | CC50 (EKVX; [1]): 64.6 µM | GI50 (TK-10): 17.4 µM | IC50 (TK-10): 36.3 µM | IC (TGI) (TK-10): 36.3 µM | CC50 (TK-10; [1]): 77.6 µM | GI50 (CCRF-CEM): 1.41 µM | IC50 (CCRF-CEM): 2.51 µM | IC (TGI) (CCRF-CEM): 4.57 µM | CC50 (CCRF-CEM; [2]): ≥ 100 µM | GI50 (PC-3): 2.95 µM | IC50 (PC-3): 4.27 µM | IC (TGI) (PC-3): 11.2 µM | CC50 (PC-3; [1]): 45.7 µM | GI50 (SW-620): 12 µM | IC50 (SW-620): 17.4 µM | IC (TGI) (SW-620): 28.2 µM | CC50 (SW-620; [1]): 67.6 µM | GI50 (NCI/ADR-RES): 17 µM | IC50 (NCI/ADR-RES): 30.9 µM | IC (TGI) (NCI/ADR-RES): 35.5 µM | CC50 (NCI/ADR-RES; [1]): 72.4 µM | GI50 (NCI-H522): 1.7 µM | IC50 (NCI-H522): 3.39 µM | IC (TGI) (NCI-H522): 3.72 µM | CC50 (NCI-H522; [1]): 8.13 µM | GI50 (SK-MEL-2): 13.2 µM | IC50 (SK-MEL-2): 29.5 µM | IC (TGI) (SK-MEL-2): 28.2 µM | CC50 (SK-MEL-2; [1]): 60.3 µM | GI50 (A498): 16.2 µM | IC50 (A498): 30.9 µM | IC (TGI) (A498): 30.2 µM | CC50 (A498; [1]): 55 µM | GI50 (MCF7): 11.5 µM | IC50 (MCF7): 19.1 µM | IC (TGI) (MCF7): 36.3 µM | CC50 (MCF7; [1]): ≥ 100 µM | GI50 (HL-60(TB)): 2.24 µM | IC50 (HL-60(TB)): 4.17 µM | IC (TGI) (HL-60(TB)): 5.01 µM | CC50 (HL-60(TB); [1]): 44.7 µM | GI50 (MDA-MB-435): 5.01 µM | IC50 (MDA-MB-435): 8.13 µM | IC (TGI) (MDA-MB-435): 18.2 µM | CC50 (MDA-MB-435; [1]): 49 µM | GI50 (MALME-3M): 15.1 µM | IC50 (MALME-3M): 29.5 µM | IC (TGI) (MALME-3M): 29.5 µM | CC50 (MALME-3M; [1]): 56.2 µM | GI50 (HS 578T): 12 µM | IC50 (HS 578T): 70.8 µM | IC (TGI) (HS 578T): 45.7 µM | CC50 (HS 578T; [2]): ≥ 100 µM | GI50 (DU-145): 4.37 µM | IC50 (DU-145): 7.24 µM | IC (TGI) (DU-145): 15.1 µM | CC50 (DU-145; [1]): 39.8 µM | GI50 (HOP-92): 13.8 µM | IC50 (HOP-92): 34.7 µM | IC (TGI) (HOP-92): 32.4 µM | CC50 (HOP-92; [1]): 75.9 µM | GI50 (ACHN): 11 µM | IC50 (ACHN): 18.6 µM | IC (TGI) (ACHN): 26.3 µM | CC50 (ACHN; [1]): 61.7 µM | GI50 (K-562): 2.82 µM | IC50 (K-562): 3.63 µM | IC (TGI) (K-562): 8.71 µM | CC50 (K-562; [2]): ≥ 100 µM | GI50 (OVCAR-5): 24 µM | IC50 (OVCAR-5): 45.7 µM | IC (TGI) (OVCAR-5): 81.3 µM | CC50 (OVCAR-5; [1]): ≥ 100 µM | GI50 (BT-549): 10.2 µM | IC50 (BT-549): 23.4 µM | IC (TGI) (BT-549): 22.4 µM | CC50 (BT-549; [1]): 50.1 µM | GI50 (HCT-116): 2.34 µM | IC50 (HCT-116): 3.24 µM | IC (TGI) (HCT-116): 6.46 µM | CC50 (HCT-116; [1]): 28.8 µM

From patent publication US20240109903A1, “SUBSTITUTED HETEROCYCLES FOR TREATING CANCER” (Northwestern University, priority 2022, published 2024)
